Assay results from paper PMC12428237, “Study on the Calcium Transport-Promoting Property and Mechanism of the Peptide–Calcium Complex DEEENDQVK–Ca Based on a Caco-2 Monolayer Model” (Foods, 2025).

How the values were obtained:
[1] = tested on: occludin; experiment: RT-qPCR, occludin mRNA expression; format: cell-based, human; settings: Caco-2 monolayer, 24 h, 2 mg/mL DK–Ca or 2 mg/mL DK + 7.5 mM CaCl2; normalized to GAPDH, 2^-ΔΔCt; n = 3
Protocol: (§1) The expression levels of genes related to calcium transport channels were determined following the method of Li et al.. After 21 days of establishing the Caco-2 monolayer model, the monolayers were treated for 24 h with a complete medium containing 2 mg/mL DK–Ca or 2 mg/mL DK + 7.5 mM CaCl2. The group without an added sample served as the control group. Subsequently, the monolayers were washed thrice with HBSS buffer before cell lysis using 200 μL RNAiso Plus. Total RNA was extracted, and first-strand cDNA synthesis was subsequently performed with the PrimeScript® RT reagent kit as per the kit manufacturer’s instructions. Using cDNA as a template, RT-qPCR was performed with gene-specific primers targeting TRPV6, calbindin-D9k, PMCA1b, occludin, and claudin-2. The standard procedure for PCR amplification was as follows: 95 °C for 30 s, followed by 40 cycles of 95 °C for 5 s, 60 °C for 30 s, and 72 °C for 1 min. Target gene expression level was normalized to GAPDH and calculated using the 2^^(-ΔΔCt) relative quantification method. In experimental groups, GAPDH served as the internal reference gene for normalization. All primer sequences used in this study are detailed in Table S1.

[2] = tested on: PMCA1b; experiment: RT-qPCR, PMCA1b mRNA expression; format: cell-based, human; settings: Caco-2 monolayer, 24 h, 2 mg/mL DK–Ca or 2 mg/mL DK + 7.5 mM CaCl2; normalized to GAPDH, 2^-ΔΔCt; n = 3
Protocol: as §1

[3] = tested on: Caco-2 monolayer; experiment: Calcium transport channel assay with channel regulators; format: cell-based, human; settings: then 2 mg/mL sample, 120 min, 37 °C, n = 3
Protocol: Before the calcium transport channel assay, 0.5 mL of HBSS buffer containing different channel regulators was added to the AP sides of the Transwell chambers. These channel regulators included 2-APB (25 μmol/L) as a calcium channel inhibitor of TRPV6, cytochalasin D (0.5 μmol/ mL) as a paracellular channel promoter, and mβCD (3 mmol/L) as an endocytic channel inhibitor. The group without the added channel regulator served as the control group. The BL side received a 1.5 mL HBSS buffer. Following 30 min incubation, solutions were removed from both sides. The AP side was then loaded with 0.5 mL of either DK–Ca (2 mg/mL) or 2 mg/mL DK + 7.5 mM CaCl2 solution, while the BL side received 1.5 mL HBSS. After 120 min incubation at 37 °C and 5% CO2, the BL solution was collected for calcium transport analysis.

[4] = Caco-2; cited from earlier work
[5] = tested on: Caco-2 monolayer; experiment: Fluo-4 AM fluorescence imaging of intracellular calcium influx; format: cell-based, human; settings: samples containing 150 μg/mL calcium, 24 h, Fluo-4 AM 4 μmol/L, confocal microscope
Protocol: Fluorescence imaging based on intracellular calcium influx was conducted to assess the calcium transport-promoting effect in the Caco-2 monolayer following the method of Men et al.. Log-phase cells were seeded at 1.5 × 10^5 cells/well in 35 mm laser confocal dishes and gently agitated to ensure uniform distribution. Cultures were maintained at 37 °C in 5% CO2 with daily medium replacement until confluent monolayers formed. Subsequently, CaCl2, DK + CaCl2, and DK–Ca solutions (each containing 150 μg/mL calcium) were added separately. The group without an added sample served as the control group. Following 24 h of incubation, the cells were washed thrice with prewarmed calcium-/magnesium-free HBSS buffer (pH 7.2). Under light-protected conditions, 200 µL of Fluo-4 AM (4 μmol/L) was applied to cover the cells. Following 30 min incubation at 37 °C and subsequent washes, cells were dark-adapted for 10 min at room temperature for de-esterification. Imaging was conducted using a confocal microscope (excitation at 496 nm, Zeiss LSM980 Airyscan2, Carl Zeiss, Germany ), followed by quantification of the fluorescence intensity with ImageJ 1.54 g software.

[6] = tested on: Caco-2 monolayer; experiment: Effect of dietary components (vitamin D3, phytic acid) on calcium transport in Caco-2 monolayer; format: cell-based, human; settings: 120 min, control without dietary component, n = 3
Protocol: Vitamin D3 (0.5 μmol/L, dissolved in 0.1% ethanol) or phytic acid (1.8 mM, with a of phytic acid/calcium molar ratio of 0.24) was added to the AP side to evaluate the effect of dietary components on calcium transport. The group without an added dietary component served as the control group. After 120 min incubation, the BL side solution was collected for calcium transport analysis.

[7] = tested on: calbindin-D9k; experiment: RT-qPCR, calbindin-D9k mRNA expression; format: cell-based, human; settings: Caco-2 monolayer, 24 h, 2 mg/mL DK–Ca or 2 mg/mL DK + 7.5 mM CaCl2; normalized to GAPDH, 2^-ΔΔCt; n = 3
Protocol: as §1

In the case of “DEEENDQVK–Ca [DK–Ca, complex formed by chemically chelating DK with CaCl2]”, the “occludin mRNA expression compared to the control group” value [1] is reported as “unchanged”, the “PMCA1b mRNA expression, upregulation compared to the untreated control group” value [2] is reported as 2.17 fold and the “reduction of transported calcium by 2-APB treatment compared to the control group” value ([3]; 2-APB (25 μmol/L, TRPV6 inhibitor) pre-incubation 30 min on AP side) is reported as 43.94%. For the same substance, the “improvement of transported calcium by cytochalasin D treatment compared to the control group” value ([3]; cytochalasin D (0.5 μmol/ mL, paracellular channel promoter) pre-incubation 30 min on AP side) was 14.82%, the “reduction of transported calcium by mβCD treatment compared to the control group” value ([3]; mβCD (3 mmol/L, endocytic channel inhibitor) pre-incubation 30 min on AP side) was 12.35% and the “calcium dialysis rate relative to CaCO3” value [4] was 1.79 times. For the same substance, the “solubility relative to blank control group (CaCO3)” value [4] was 1.56 times, the “fluorescence intensity (intracellular calcium influx) compared to the control group” value [5] was “significantly increased” and the “reduction of transported calcium by phytic acid compared to the control group” value ([6]; phytic acid 1.8 mM (phytic acid/calcium molar ratio 0.24) on AP side) was 7.83%. For the same substance, the “increase of transported calcium by vitamin D3 compared to the control group” value ([6]; vitamin D3 0.5 μmol/L on AP side) was 11.3% and the “calbindin-D9k mRNA expression, upregulation compared to the untreated control group” value [7] was 2.26 fold.
